Measurements taken from patent US20250152593A1, “p38 MAPK INHIBITORS AND USES THEREOF” (CITY OF HOPE, priority 2023, published 2025).

How the values were obtained:
[1] = test system: Hut78 cells; assay: combination study of HDAC inhibitors and CEM451 with Hut78 cells; assay type: cell-based; details: for Effect of CEM451 / Effect of Romidepsin / Effect of SAHA: Hut78
[2] = test system: RPMI8226 multiple myeloma cells; assay: combination of SAHA and CEM451 with RPMI8226 multiple myeloma cells; assay type: cell-based; details: for Effect of CEM451 / Effect of SAHA: RPMI8226
[3] = test system: hematopoietic cell lines; assay: antitumor activity against hematopoietic cell lines; assay type: cell-based
Description: (§1) Quinazoline derivatives were initially tested with various cancer types of cell lines using a cell-based assay.

[4] = biological target: p38 MAPK alpha (Homo sapiens, UniProt Q16539); assay: in vitro kinase assay, p38 MAPK alpha catalytic activity; assay type: biochemical
Procedure: (§2) FIGS. 6A-6C. In vitro kinase assays for p38a (FIG. 6A), p38β(FIG. 6B), and […] (FIG. 6C) at 100 nM.
as §1

[5] = test system: K562 CML cells; assay: cell-based assay, K562 CML cells; details: Homo sapiens, read-out: IC50 against K562 CML cells
Description: as §1

[6] = biological target: p38 MAPK beta (Homo sapiens, UniProt Q15759); assay: in vitro kinase assay, p38 MAPK beta catalytic activity; assay type: biochemical
Procedure: as §2, §1

p38 MAPK alpha, sequence (Q16539 whole entry): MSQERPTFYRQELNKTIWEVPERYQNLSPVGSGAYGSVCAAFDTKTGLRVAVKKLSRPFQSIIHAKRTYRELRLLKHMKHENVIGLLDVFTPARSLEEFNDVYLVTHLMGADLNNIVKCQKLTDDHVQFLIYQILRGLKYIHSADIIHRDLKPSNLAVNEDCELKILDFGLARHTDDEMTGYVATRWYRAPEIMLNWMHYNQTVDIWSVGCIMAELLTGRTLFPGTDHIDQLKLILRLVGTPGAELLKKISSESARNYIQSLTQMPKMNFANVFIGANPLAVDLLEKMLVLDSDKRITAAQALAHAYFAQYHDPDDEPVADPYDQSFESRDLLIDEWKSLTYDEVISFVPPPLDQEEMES
p38 MAPK beta, sequence (Q15759 whole entry): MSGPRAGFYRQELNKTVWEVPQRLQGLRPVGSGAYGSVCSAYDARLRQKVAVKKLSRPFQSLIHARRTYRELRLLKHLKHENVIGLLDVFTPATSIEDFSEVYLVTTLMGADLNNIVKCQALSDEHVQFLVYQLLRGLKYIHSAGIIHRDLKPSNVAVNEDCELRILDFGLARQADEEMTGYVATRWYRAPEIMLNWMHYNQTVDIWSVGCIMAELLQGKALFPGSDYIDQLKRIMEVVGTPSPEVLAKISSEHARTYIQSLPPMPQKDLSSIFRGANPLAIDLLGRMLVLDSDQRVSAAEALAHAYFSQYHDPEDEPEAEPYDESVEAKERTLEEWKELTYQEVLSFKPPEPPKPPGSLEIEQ

For `Cc1ccc(NC(=O)c2cccc(C(F)(F)F)c2)cc1Nc1ncnc2nc(NC3CC3)ncc12` [CEM451, N-(3-((7-(cyclopropylamino)pyrimido[4,5-d]pyrimidin-4-yl)amino)-4-methylphenyl)-3-(trifluoromethyl)benzamide], the “Effect of CEM451” value ([1]; Romidepsin combination study, CEM451 5 μM) was 0.57, the “Effect of CEM451” value ([1]; Romidepsin combination study, CEM451 10 μM) was 0.72 and the “Effect of CEM451” value ([1]; Romidepsin combination study, CEM451 15 μM) was 0.83. The “Effect of CEM451” value ([1]; high doses study with SAHA, CEM451 5 μM) was 0.48, the “Effect of CEM451” value ([1]; high doses study with SAHA, CEM451 10 μM) was 0.65 and the “Effect of CEM451” value ([1]; high doses study with SAHA, CEM451 15 μM) was 0.81. The “Effect of CEM451” value ([1]; low doses study, CEM451 0.5 μM) was 0.24, the “Effect of CEM451” value ([1]; low doses study, CEM451 1 μM) was 0.26 and the “Effect of CEM451” value ([1]; low doses study, CEM451 3 μM) was 0.45. The “effect in combination with SAHA” value ([1]; Hut78 CTCL cells) was “synergistic effects”, the “Effect of CEM451” value ([2]; CEM451 5 μM) was 0.47 and the “Effect of CEM451” value ([2]; CEM451 10 μM) was 0.71. The “Effect of CEM451” value ([2]; CEM451 15 μM) was 0.81, the “effect in combination with SAHA” value ([2]; RPMI8226 MM cells) was “synergistic effects” and the “antitumor activities against hematopoietic cell lines” value [3] was “broadly showed antitumor activities”. It also gave an IC50 [4] of 6.2 nM, an IC50 [5] of 540 nM and an IC50 [6] of 13 nM.

For `C/C=C1\NC(=O)[C@H]2CSSCC/C=C/[C@H](CC(=O)N[C@H](C(C)C)C(=O)N2)OC(=O)[C@H](C(C)C)NC1=O` [Romidepsin, reference compound], the “Effect of Romidepsin” value ([1]; Romidepsin 0.001 μM) was 0.1, the “Effect of Romidepsin” value ([1]; Romidepsin 0.0015 μM) was 0.58 and the “Effect of Romidepsin” value ([1]; Romidepsin 0.002 μM) was 0.92.

In the case of `O=C(CCCCCCC(=O)Nc1ccccc1)NO` [SAHA, reference compound], the “Effect of SAHA” value ([1]; high doses study, SAHA 0.6 μM) is reported as 0.16, the “Effect of SAHA” value ([1]; high doses study, SAHA 0.9 μM) is reported as 0.27 and the “Effect of SAHA” value ([1]; high doses study, SAHA 1.2 μM) is reported as 0.74. The “Effect of SAHA” value ([1]; low doses study, SAHA 0.6 μM) was 0.3, the “Effect of SAHA” value ([1]; low doses study, SAHA 0.9 μM) was 0.59 and the “Effect of SAHA” value ([1]; low doses study, SAHA 1.2 μM) was 0.84. The “Effect of SAHA” value ([2]; SAHA 0.6 μM) was 0.63, the “Effect of SAHA” value ([2]; SAHA 0.9 μM) was 0.8 and the “Effect of SAHA” value ([2]; SAHA 1.2 μM) was 0.91.
